Experimental data as given in article PMC7721897, “Metabolism and pharmacokinetics of a novel polyphenol fatty acid ester phloridzin docosahexaenoate in Balb/c female mice” (Scientific Reports, 2020).

Assay: In vitro phase I metabolism with mouse hepatic microsomes and NADPH
Format: in vitro ADME
Conditions: liver microsomal enzymes of C57BL/6 male mice
Description: Figure 2 PZ-DHA undergoes phase I metabolism in the presence of freshly prepared mouse liver microsomes. PZ-DHA (1.1 µM) was incubated with 100 mM NADPH in the presence of mouse liver microsome for 1 h at 37 °C. Metabolites from PZ-DHA (A) hydrolysis, (B) and (C) hydroxylation, and (D) epoxidation were identified.
Mouse hepatic microsomes were freshly isolated from the livers of male C57BL/6 mice, and the entire extraction procedure was carried out at 4 °C. Mouse livers were minced and homogenized in KCl/sucrose phosphate buffer (0.154 M KCl, 0.25 M sucrose in 50 mM potassium phosphate buffer (K2HPO4/KH2PO4) (PPB), pH 7.5). Cell/tissue debris was separated out by centrifuging homogenized livers at 12,000×g for 22 min at 4 °C. The supernatant was collected and centrifuged at 100,000×g for 70 min at 4 °C. The pellet was gently rinsed using 50 mM PPB and resuspended in glycerol/phosphate buffer (20% glycerol (v/v), 80% 0.1 M PPB pH 7.5). The protein concentration was determined using a Bradford assay (R^2 = 1.00), and microsomes were stored at − 80 °C.
Potential in vitro phase I and phase II metabolites of PZ-DHA were detected by incubating PZ-DHA in the presence of freshly-prepared mouse hepatic microsome preparations. Phase I metabolites were determined by incubating 1.1 µM PZ-DHA with 100 mM NADPH in the presence of mouse hepatic microsomes for 1 h at 37 °C. Phase II methylation, glucuronidation, and sulphation of PZ-DHA was determined by incubating 1.1 µM PZ-DHA with 1 mM SAM, 2 mM UDPGA, and 0.5 mM PAPS, respectively, in the presence of freshly prepared mouse hepatic microsome for 1 h at 37 °C (Supplementary information Tables S1–S4). To assess the efficiency of the metabolic process, controls (no PZ-DHA control, no mouse hepatic microsome control and no co-factor control) were incubated in parallel to the test. Reactions were terminated by adding a mixture of 4 mL ice-cold acetonitrile:acetone (80:20) containing 0.05 mg/mL quercetin as the internal standard. Proteins were precipitated by incubating the reaction mixture at 4 °C overnight and separated by centrifuging at 14,000 × g for 15 min at 4 °C. Supernatants were concentrated under nitrogen flush, filtered and PZ-DHA and/or PZ-DHA metabolites were identified using a UPLC-ESI–MS/MS system (Waters Limited, Mississauga, ON, Canada).
PZ-DHA and/or PZ-DHA metabolites in malignant/non-malignant epithelial cell lysates, in vitro microsome enzyme reaction mixtures, and mouse serum aliquots were determined using UPLC-ESI–MS/MS instrument (Waters Limited, Mississauga, ON, Canada). All mass spectroscopic analyses were performed using mass scan (full-scan, identification of unknowns) and single ion monitoring (SIM; quantification of PZ, DHA, PZ-DHA, and quercetin) modes of a Waters H-class UPLC separations module coupled with a Micromass Quattro micro API MS/MS system and MassLynx V4.0 control software. An Allure biphenyl column (100 mm × 2.1 mm, 1.8 μm, Restek Pure Chromatography, Bellefonte, PA, USA) and a flow rate of 0.3 mL/min were employed. ESI- mode with a capillary voltage of 3000 V and a nebulizer gas (N2) temperature of 375 °C were used. A volume of 2 µL sample was injected.

CC/C=C\C/C=C\C/C=C\C/C=C\C/C=C\C/C=C\CCC(=O)OC[C@H]1O[C@@H](Oc2cc(O)cc(O)c2C(=O)CCc2ccc(O)cc2)[C@H](O)[C@@H](O)[C@@H]1O [PZ-DHA, phloridzin docosahexaenoate]
NADPH-dependent phase I bio-transformations identified: hydrolysis, hydroxylation, and epoxidation
